Values joined by “and” are separate entries in the source; they are usually repeats but may differ in a detail not shown here. Identical values can stand only once. Like-named read-outs stand apart in the source and are kept apart here.
Tests used:
[1] = test system: MCF-7 breast carcinoma cell line; assay: Cell growth proliferation inhibition, MTT assay, MCF7; format: cell-based, human; details: MCF7 cells, 72 hours exposure
Description: (§1) When the cell are confluent, they are trypsinised and seeded in 48-well plates as monolayers for 24 h. […] The media is removed from the cell plates are the drug solutions applied in triplicate. A set of control cells, with media containing 1.0% DMSO, was left on each plate. The cells were exposed to the drugs for 72 hours. For […], (8) and (9), the Ru compounds are weighed, and dissolved directly in medium to 1600 μM, then serially diluted to make up 800 μ[…] solutions. Cell viability was determined using the standard MTT assay protocol, which allows the quantification of the mitochondrial activity in metabolically active cells. MTT (final concentration 0.2 mg/ml) was added to the cells for 2 h, then the culture medium was aspirated and the violet formazan precipitate dissolved in 0.1 N HCl in 2-propanol. The optical density, which is directly proportional to number of surviving cells, was quantified at 540 nm using a multiwell plate reader and the fraction of surviving cells was calculated from the absorbance of untreated control cells. Using the above protocol, the compounds were tested against human T47D and MCF-7 breast carcinoma, A549 lung carcinoma and HT-29 colon carcinoma cell lines (see FIG. 7).

[2] = test system: HT-29 colon carcinoma cell line; assay: Cell growth proliferation inhibition, MTT assay, HT29; format: cell-based, human; details: 72 hours exposure
Description: as §1

[3] = test system: T47D breast carcinoma cell line; assay: Cell growth proliferation inhibition, MTT assay, T47D; format: cell-based, human; details: T47D cells, 72 hours exposure
Description: as §1

[4] = test system: A549 lung carcinoma cell line; assay: Cell growth proliferation inhibition, MTT assay, A549; format: cell-based, human; details: A549 cells, 72 hours exposure
Description: as §1

[5] = test system: A2780 Human ovarian carcinoma; assay: IC50 on tumor cell lines, MTT test, A2780; format: cell-based; details: A2780, 3 days treatment, two separate experiments
Description: (§2) IC50 values are determined as follows: Tumour cells are incubated in the appropriate complete medium at 37° C. and under controlled atmosphere (5% CO2). Test compounds are tested at doses in the range of 100 nM and 100 μM. Cytotoxicity is determined by the MTT test, by measuring cell viability as the cell metabolic capacity to transform the tetrazolium salt of MTT in the blue formazan, by mitochondrial dehydrogenases; the blue colour is read at 570 nm with a spectrophotometer (Alley M C, Scudiero D A, Monks A, Hursey A L, Czerwinski M J, Fine D L, Abbott B J, Mayo J G, Shoemaker R H, Boyd M R. Feasibility of drug screening with panels of human tumor cell lines using a microculture tetrazolium assay. Cancer Res 48: 598-601, 1988. Mosmann T. Rapid colorimetric assay for cellular growth and survival: application to proliferation and cytotoxicity assays. […] Briefly, on day 0, in 96-well plates, 2-4000 cells/well/100 μl complete medium are plated. On day 1, test compounds are added at the test concentrations of 10^−7 M; 3*10^−7 M; 10^−6 M; 3*10^−6 M; 10^−5 M; 3*10^−5M; 10^−4 M. Each concentration is studied in triplicate. Cell viability, as determined by the MTT test is done on Day 4, after 3 days treatment. Each well is added with 10 μl/100 μl MTT (prepared previously by dissolving 5 mg/ml MTT in PBS, sterilized with filters at a cut-off of 0.22 mm and stored at 4° C.). Plates are put in an incubator at 37° C. for 4 hrs, then medium is eliminated and each well is added with 200 μl DMSO (Sigma Chemical Co., USA). Plates are read with a spectrophotometer (Spectra count Packard Bell, Meriden, Conn., USA) at 570 nm wave length. IC50 is calculated with the GraphPad Prism4.

[6] = test system: A2780/CDDP Human ovarian carcinoma resistant to Cistplatin; assay: IC50 on tumor cell lines, MTT test, A2780/CDDP; format: cell-based; details: for IC50: read-out: IC50 values A2780/CDDP
Description: Tumor cell lines derived from human and mouse turnours listed below were stabilised for in vitro propagation.
IC50 values are determined as follows: Tumour cells are incubated in the appropriate complete medium at 37° C. and under controlled atmosphere (5% CO2). Test compounds are tested at doses in the range of 100 nM and 100 μM. Cytotoxicity is determined by the MTT test, by measuring cell viability as the cell metabolic capacity to transform the tetrazolium salt of MTT in the blue formazan, by mitochondrial dehydrogenases; the blue colour is read at 570 nm with a spectrophotometer (Alley M C, Scudiero D A, Monks A, Hursey A L, Czerwinski M J, Fine D L, Abbott B J, Mayo J G, Shoemaker R H, Boyd M R. Feasibility of drug screening with panels of human tumor cell lines using a microculture tetrazolium assay. Cancer Res 48: 598-601, 1988. Mosmann T. Rapid colorimetric assay for cellular growth and survival: application to proliferation and cytotoxicity assays. J Immunol Methods 65: 55-63, 1983). Briefly, on day 0, in 96-well plates, 2-4000 cells/well/100 μl complete medium are plated. On day 1, test compounds are added at the test concentrations of 10^−7 M; 3*10^−7 M; 10^−6 M; 3*10^−6 M; 10^−5 M; 3*10^−5M; 10^−4 M. Each concentration is studied in triplicate. Cell viability, as determined by the MTT test is done on Day 4, after 3 days treatment. Each well is added with 10 μl/100 μl MTT (prepared previously by dissolving 5 mg/ml MTT in PBS, sterilized with filters at a cut-off of […] and stored at 4° C.). Plates are put in an incubator at 37° C. for 4 hrs, then medium is eliminated and each well is added with 200 μl DMSO (Sigma Chemical Co., USA). Plates are read with a spectrophotometer (Spectra count Packard Bell, Meriden, Conn., USA) at 570 nm wave length. IC50 is calculated with the GraphPad Prism4.
The reported values are the most representative of two separate experiments.

TLX5 Mouse lymphona = assay: IC50 on tumor cell lines, MTT test, TLX5; format: cell-based; details: TLX5, 3 days treatment, two separate experiments
Description: as §2

[7] = test system: HT-29 Human colorectal carcinoma; assay: IC50 on tumor cell lines, MTT test, HT-29; format: cell-based; details: HT-29, 3 days treatment, two separate experiments
Description: as §2

TLX5 lymphona cells = assay: Survival time in an in vivo TLX5 lymphoma model; set-up: species or system CBA brown-grey inbred mice; details: for % increase vs Controls (mean survival time) / Mean survival time (days ± SD): TLX5 cells i.p. day 0 in CBA mice, treatment i.p. at day 3, Compound 3 at 200 mg/kg, Cisplatin 8 mg/kg; for Activity in vivo (in words): TLX5 lymphoma in mice, i.p., compound 3 given as suspension in carboxymethylcellulose
Description: Tumour cells (TLX5, see above in Example 8) were derived from mouse tumours and stabilised for in vivo propagation. For the animal study, TLX5 lymphona cells were injected in the peritoneal cavity of CBA brown-grey inbred mice (Harlan-Nossan, San Giovanni al Natisone, Udine, Italy) at day 0. Test compounds were applied at day 3 at various doses, also by the intraperitoneal route, with each drug (test compound or reference drug) diluted in appropriate physiological solution and injected in a volume of 0.1 ml/10 g body weight.

[8] = test system: H460M Human lung carcinoma/metastatic; assay: IC50 on tumor cell lines, MTT test, H460M; format: cell-based; details: 3 days treatment, two separate experiments
Description: as §2

[9] = test system: MIA-PaCa-2 Human pancreatic cancer; assay: IC50 on tumor cell lines, MTT test, MIA PaCa-2; format: cell-based; details: MIA PaCa-2, 3 days treatment, two separate experiments
Description: as §2

[10] = test system: Glutathione-S-Transferase; assay: Inhibition of Glutathione-S-Transferase activity in A549 cell lysates (glutathione-CDNB assay); format: biochemical, human; details: A549 lung carcinoma cell lysates exposed to 100 μM drug solution for 90 mins
Description: Human A549 lung carcinoma cells, known to express high levels of Glutathione-S-Transferase, were routinely grown in flasks with DMEM medium containing 4.5 g/l glucose, 10% foetal calf serum (FCS) and antibiotics at 37° C. and 6% CO2. When the cells are confluent, they are trypsinised and concentrated in a centrifuge at 4° C. The cells were then diluted in phosphate-buffer saline (PBS) containing protease inhibitor cocktail (final concentration of 1 μg/ml) and homogenised by repeatedly freezing in liquid nitrogen and thawing (4 cycles). The homogenised cell samples were centrifuged at 4° C. and the supernatant, which is the cell lysates, was separated. The cell lysates are stored at −56° C.
The Ru compounds are weighed, and dissolved in DMSO to 100 mM. […] The cell lysates were exposed to the drug solutions for 90 mins. Control, containing the cell lysates with water/0.1% DMSO was also prepared.
The GST activity in the treated cell lysates was determined using the glutathione-CDNB (1-chloro-2,4-dinitrobenzene) assay. Glutathione and CDNB were dissolved in deionised water and ethanol respectively to make up a 100 mM solutions. A developing solution, containing 50 mM phosphate buffer solution (pH 6.5), was prepared and was added 1% v/v, the 100 mM glutathione and 100 mM CDNB solutions such that their final concentrations are both 1 mM. The developing solution was added to a 96-well plate at 200 μl per well, followed by the treated cell lysates at 2 μl per well. The absorbance at 340 nm was monitored continuously for 5 mins at 15 s intervals. The average slope of the change in absorbance was determined as a fraction of the control as the percentage of residual GST activity.

[11] = A2780/CDDP (Cisplatin-resistant), 3 days treatment, MTT test, two separate experiments

For `Cc1ccc(C(C)C)cc1.[Cl][Ru]([Cl])[PH]12CN3CN(CN(C3)C1)C2` [(η^6-cymene)Ru(PTA)Cl2, reference compound], the IC50 [1] was > 1600 µM, the IC50 ([2]; HT29 cells) was 436 µM and the IC50 [3] was 1060 µM. It also gave an IC50 [4] of 1030 µM.
`N.N.[Cl][Pt][Cl]` [Cisplatin] was tested, and the IC50 [5] was 10.5 to 11.8 µM, the IC50 [6, 11] was > 100 µM and the IC50 (TLX5 Mouse lymphona) was 0.02 to 0.2 µM. The IC50 [7] was 4.9 to 32.6 µM, the “% increase vs Controls (mean survival time)” value (TLX5 lymphona cells) was 18% and the “Mean survival time (days ± SD)” value (TLX5 lymphona cells) was 11.8 ± 1.79 days. The “Activity in vivo (in words)” value (TLX5 lymphona cells) was “effective”, the IC50 [8] was 1.3 to 3 µM and the IC50 [9] was 10.6 to 12.9 µM.
`C1N2CN3CN1CP(C2)C3.C=C(CC)C(=O)c1ccc(OCC(=O)OCCc2ccccc2)c(Cl)c1Cl.[Cl][Ru][Cl]` [Compound 4, (Ethacrynic-η^6:phenylethanoate)Ru(PTA)Cl2] was tested, and the IC50 [1] was 105 µM, the IC50 [5] was ~30 µM and the IC50 [6, 11] was 36.7 to 38.7 µM. For the same compound, the “Activity against the Cisplatin-resistant cell line A2780/CDDP (in words)” value ([6]; A2780/CDDP, MTT test) was “active”, the IC50 (TLX5 Mouse lymphona) was 3.6 to 4.3 µM and the IC50 ([2]; HT29 cells) was 106 µM. For the same compound, the IC50 [7] was 30 to 32.6 µM, the IC50 [3] was 6.28 µM and the IC50 [8] was 29.1 to 31.5 µM. The IC50 [9] was 81.5 to 92.7 µM, the “Residual GST activity (% control)” value [10] was 42.77 ± 13.9 % control and the IC50 [4] was 66.7 µM.
With `C=C(CC)C(=O)c1ccc(OCC(=O)O)c(Cl)c1Cl` [Ethacrynic acid, reference compound] the IC50 ([1]; Homo sapiens) was 66 µM, the IC50 ([5]; Homo sapiens, 72 h) was 91.1 to 94.8 µM and the IC50 ([6]; Homo sapiens, A2780/CDDP, 72 h) was 84.3 to 97.6 µM. The IC50 (TLX5 Mouse lymphona; Mus musculus, TLX-5, 72 h) was 1.3 to 1.8 µM, the IC50 ([2]; Homo sapiens, HT-29, HT29 cells) was 73.5 µM and the IC50 ([7]; Homo sapiens, 72 h) was 35.2 to 44 µM. The IC50 ([3]; Homo sapiens) was 7.73 µM, the IC50 ([8]; Homo sapiens, 72 h) was 58.1 to 63.3 µM and the IC50 ([9]; Homo sapiens, 72 h) was > 100 µM. It also gave an IC50 ([4]; Homo sapiens) of 50.7 µM.
Compound “(Ethacrynic-η^6:benzylamide)Ru(PTA)Cl2 [Compound 3]” has an IC50 [1] of 19.9 µM, an IC50 [5] of 7.1 to 9.5 µM and an IC50 [6, 11] of 4.6 to 5.3 µM. The “Activity against the Cisplatin-resistant cell line A2780/CDDP (in words)” value ([6]; A2780/CDDP, MTT test) was “active”, the IC50 (TLX5 Mouse lymphona) was 0.8 to 3 µM and the IC50 ([2]; HT29 cells) was 50.7 µM. For the same compound, the IC50 [7] was 2.3 to 3.8 µM, the IC50 [3] was 2.91 µM and the “% increase vs Controls (mean survival time)” value (TLX5 lymphona cells) was 22%. The “Mean survival time (days ± SD)” value (TLX5 lymphona cells) was 12.2 days and 12.2 ± 1.79 days, the “Activity in vivo (in words)” value (TLX5 lymphona cells) was “active in vivo” and the IC50 [8] was 2.5 to 3.8 µM. For the same compound, the IC50 [9] was 14.7 to 20.1 µM, the “Residual GST activity (% control)” value [10] was 63.57 ± 2.0 % control and the IC50 [4] was 32.3 µM.
For (η^6 cymene)Ru(PTA)(C2O4) [Compound 8], the IC50 [1] was > 1600 µM, the IC50 ([2]; HT29 cells) was 267 µM and the IC50 [3] was 1170 µM. For the same compound, the IC50 [4] was 1130 µM.
With “(η^6-cymene)Ru(PTA)(C6H6O4) [Compound 9]” the IC50 [1] was > 1600 µM, the IC50 ([2]; HT29 cells) was 265 µM and the IC50 [3] was 1090 µM. The IC50 [4] was 1570 µM.
Compound “(η^6-cymene)RuCl2(ethacrynic-propylamide-imidazole) [Compound 6]” has an IC50 [1] of 10.7 µM, an IC50 ([2]; HT29 cells) of 39.1 µM and an IC50 [3] of 4.8 µM. For the same compound, the “Residual GST activity (% control)” value [10] was 23.70 ± 10.7 % control and the IC50 [4] was 34 µM.
With RAPTA-T the IC50 [5] was > 100 µM, the IC50 [6, 11] was > 100 µM and the IC50 (TLX5 Mouse lymphona) was 64.1 to 92.9 µM. For the same compound, the IC50 [7] was > 100 µM, the IC50 [8] was > 100 µM and the IC50 [9] was > 100 µM.
“[(η^6-cymene)RuCl(PTA)(imidazolium-ethacrynic aide)]BF4^− [Compound 7]” showed an IC50 [1] of 19.9 µM, an IC50 ([2]; HT29 cells) of 64.2 µM and an IC50 [3] of 5.97 µM. The “Residual GST activity (% control)” value [10] was 62.58 ± 8.8 % control and the IC50 [4] was 65.1 µM.
